Test results reported in patent US20210106566A1, “PHARMACEUTICAL COMPOSITION FOR TREATING AND/OR PREVENTING PERIPHERAL NEUROPATHY OR SPINAL CORD INJURY” (NATIONAL UNIVERSITY CORPORATION NAGOYA UNIVERSITY, priority 2015, published 2021).

What was measured:
primary motor neurons [1] = assay: Neurite outgrowth in primary spinal cord motor neurons; assay type: cell-based, mouse
Experimental: Primary cultured mouse embryonic spinal cord motor neurons were isolated from spinal cord embryo of C57BL/6J mouse on 13.5th day of embryonic stage (E13.5). Solutions of zonisamide in DMSO were prepared at concentrations from 200 μmol/L to […] and then added to the culture medium to obtain the final concentration of zonisamide from 1 μmol/L to 20 μmol/L. The culture medium contained 0.5% DMSO whether or not it contained zonisamide. The cells were seeded at 4.0×10^3 cells/cm^2 in a 96-well plate (Asahi Techno Glass) coated with poly-L-lysine and laminin and maintained in Sumilon neuron culture medium (Sumitomo Bakelite). After incubation for 2 days, the cells were fixed in PBS with 4% […] at ordinary temperature for 15 minutes. The cells were washed with PBS once, blocked with PBS containing 2% goat serum and 0.1% Triton-X, and immunostained with mouse anti-tau-1 monoclonal antibody (1:500, MAB3420, Millipore) and Alexa Fluor 555-conjugated goat anti-mouse secondary antibody (1:1000, Life Technologies). Neurites were automatically analyzed on ArrayScan VTI HCS Reader. The neurite length and the number of nerve branch points were quantified by evaluating the longer 200 neurites. The ratio of neurite-bearing cells was determined by counting cells having a neurite length of 25 micron or more in each well.

primary motor neurons [2] = assay: Scratch assay of neurite regeneration; assay type: cell-based, mouse; settings: 0, 1, 10, or 20 μmol/L, 48 hours after scratch
Experimental: Primary cultured motor neurons were seeded in a Nun Lab-Tek Chamber Slide (Thermo Scientific) coated with poly-L-lysine at 8.0×10^4 cells/cm^2×0.7 cm^2/well and then cultured in Sumilon neuron culture medium for 48 hours. Neurites of primary motor neurons were linearly scratched off with a 200 μL sterile pipette tip. The cells were immediately rinsed with PBS and cultured in Sumilon neuron culture medium containing 0, 1, 10, or 20 μmol/L zonisamide for 48 hours. The cells were fixed in 4% paraformaldehyde and immunostained with neuron-specific β-III tubulin monoclonal antibody (1:1000, MAB1195, R&D systems) and Alexa Fluor 488-conjugated goat anti-mouse secondary antibody (Life Technologies). Images of the scratched areas were acquired on a microscope (Olympus LX71). The neurite lengths of primary motor neurons in the scratched areas were automatically measured with MetaMorph software (Universal Imaging).

JNK1/2/3 = JNK1/2/3 phosphorylation in NSC34 cells; assay type: cell-based, mouse
[3] = system: severely crushed spinal cord model mice; assay: Severely crushed spinal cord model mice: motor function with BMS score; assay type: in vivo, mouse; settings: for BMS score: 30 mg/kg/day intragastrically
Source text: Female C57BL/6J mice (8 weeks old; 19.5-22.0 g) were purchased from Charles River. The female C57BL/6J mice were anesthetized by intraperitoneally administering pentobarbital sodium and underwent back incision under a sterile condition to perform laminectomy at the 10th thoracic vertebra. The spinal cord was crushed at 100 kdyn using a tip with a diameter of 1.35 mm on IH Spinal Cord Impactor. After the occurrence of hematoma in the spinal cord was confirmed under a microscope, the wound was closed and 1 ml of physiological saline was subcutaneously injected into the posterior neck region to prevent dehydration. The mice with spinal cord injury were separated into two groups in a blinded fashion. Zonisamide was diluted with olive oil (solvent) to 3 mg/mL and intragastrically administered to mice in one group at 30 mg/kg/day using a disposable probe needle (flexible type, Fuchigami) for consecutive days from the day of surgery. Mice in the other group received only the solvent using a similar procedure for consecutive days. One day after surgery, motor function of mice in both groups was assessed using BMS score (Basso mouse scale; Li et. al. J Neurosurg Spine 4: 165-173 (2006)) in a blinded fashion to select the mice with BMS score of 1 or lower and consider them as severely crushed spinal cord model mice. The mice received 200 mL of water containing trimethoprim (16 mg)/sulfamethoxazole (80 mg) from a feeder to prevent infection for 3 days after surgery. BMS score is scored by rating ankle movement, weight support, stepping, coordinated motion of forelimbs and hindlimbs (coordination), hindlimb position in walking, trunk stability, and tail position, and ranges from 0 to 9; score 0 corresponds to complete paralysis of hindlimb and score 9 corresponds to normal motion; more specifically, BMS score is described as follows: 0: No ankle movement. 1: Slight ankle movement (less than 50% of the range of motion). 2: Extensive ankle movement (equal to and greater than 50% of the range of motion). 3: Plantar placing of the paw or occasional dorsal stepping. 4: Occasional planter stepping with weight support (equal to and less than 50% of forward movement). 5: Frequent or consistent planter stepping (equal to and greater than 50% of forward movement), no coordination of limbs; or frequent or consistent planter stepping, some coordination of limbs, hindlimb paws rotated at initial contact and lift off. 6: Some coordination of limbs, hindlimb paws parallel at initial contact and rotated at lift off; or mostly coordinated, hindlimb paws rotated at initial contact and lift off. […] BMS scores were measured at days 1, 3, 7, 14, 21, and 28 after surgery in a blinded fashion (FIG. 14).

[4] = dose dependency, 1 μmol/L to 20 μmol/L, FIG. 1

Q: How did the “neurite extension of primary motor neurons (screening of the 16 drugs)” value (primary motor neurons [1]; culture for 48 hours, tau staining) turn out when `NS(=O)(=O)Cc1noc2ccccc12` [Zonisamide, 3-sulfamoylmethyl-1,2-benzisoxazole] was run?
A: able to extend neurites

Q: What about the “axonal growth (average neurite length) in primary motor neurons” value (primary motor neurons [1]; [4]) of the same compound?
A: dose-dependent axonal growth

Q: And the “number of branch points in axons of primary motor neurons” value (primary motor neurons [1]; [4])?
A: dose-dependent increase

Q: What about the “ratio of neurite-bearing cells in primary motor neurons” value (primary motor neurons [1]; neurite length of 25 micron or more, FIG. 1) of the same compound?
A: not increased

Q: And the “neurite length in the scratch assay” value (primary motor neurons [2])?
A: dose-dependent increase

Q: And the “phosphorylation level of JNK1/2/3” value (JNK1/2/3)?
A: slightly increased

Q: What about the BMS score ([3]; day 14 after surgery) of the same compound?
A: 3.2±0.3

Q: And the BMS score ([3]; day 21 after surgery)?
A: 3.2±0.4

Q: What about the BMS score ([3]; day 28 after surgery) of the same compound?
A: 3.7±0.4

Q: And the “BMS score compared to the control group” value ([3]; since day 14 after surgery)?
A: significantly higher
